Assay results published in ChEMBL document CHEMBL1152284, “The contribution of plukenetione A to the anti-tumoral activity of Cuban propolis” (Bioorg Med Chem, 2008).
Converted amounts (≈) assume the structure as drawn. The source made the active and inactive calls. No cut-off for these calls is given here.

Key:
K562 = assay: Cytotoxicity against human K562 cells after 24 hrs; format: functional, cell-based; conditions: K562, 24 h
NCI-H460 = assay: Cytotoxicity against human H460 cells after 24 hrs; format: functional, cell-based; conditions: NCI-H460, 24 h
A2780 [1] = assay: Cytotoxicity against human A2780 cells after 24 hrs; format: functional, cell-based; conditions: A2780, 24 h
HCT-8 [2] = assay: Cytotoxicity against SN38-resistant human HCT8 cells after 24 hrs; format: functional, cell-based; conditions: HCT-8, 24 h
[3] = Cytotoxicity against cisplatin-resistant human LAN1 cells after 24 hrs; format: functional, cell-based; conditions: LAN1, 24 h
A2780 [4] = assay: Cytotoxicity against cisplatin-resistant human A2780 cells after 24 hrs; format: functional, cell-based; conditions: A2780, 24 h
Jurkat = assay: Cytotoxicity against human Jurkat cells after 24 hrs; format: functional, cell-based
[5] = Cytotoxicity against 5-FU-resistant human LAN1 cells after 24 hrs; format: functional, cell-based; conditions: LAN1, 24 h
PC-3 = assay: Cytotoxicity against human PC3 cells after 24 hrs; format: functional, cell-based; conditions: PC-3, 24 h
[6] = Cytotoxicity against etoposide-resistant human LAN1 cells after 24 hrs; format: functional, cell-based; conditions: LAN1, 24 h
[7] = Cytotoxicity against cisplatin-resistant human M51 cells after 24 hrs; format: functional, cell-based; conditions: M51, 24 h
[8] = Cytotoxicity against human M51 cells after 24 hrs; format: functional, cell-based; conditions: M51, 24 h
HCT-8 [9] = assay: Cytotoxicity against human HCT8 cells after 24 hrs; format: functional, cell-based; conditions: HCT-8, 24 h
HEK293 = assay: Cytotoxicity against HEK293 cells after 24 hrs; format: cell-based; conditions: Homo sapiens, HEK293, 24 h
MCF7 [10] = assay: Cytotoxicity against 5-FU-resistant human MCF7 cells after 24 hrs; format: functional, cell-based; conditions: MCF7, 24 h
A2780 [11] = assay: Cytotoxicity against doxorubicin-resistant human A2780 cells after 24 hrs; format: functional, cell-based; conditions: A2780, 24 h
[12] = Cytotoxicity against human LAN1 cells after 24 hrs; format: functional, cell-based; conditions: LAN1, 24 h
HT-29 [13] = assay: Cytotoxicity against human HT-29 cells after 24 hrs; format: functional, cell-based; conditions: HT-29, 24 h
HCT-8 [14] = assay: Cytotoxicity against raltitrexed-resistant human HCT8 cells after 24 hrs; format: functional, cell-based; conditions: HCT-8, 24 h
LNCaP [15] = assay: Cytotoxicity against human LNCAP cells after 24 hrs; format: functional, cell-based
MCF7 [16] = assay: Cytotoxicity against doxorubicin-resistant human MCF7 cells after 24 hrs; format: functional, cell-based; conditions: MCF7, 24 h
LNCaP [17] = assay: Cytotoxicity against etoposide-resistant human LNCAP cells after 24 hrs; format: functional, cell-based
[18] = Cytotoxicity against human […] cells after 24 hrs; format: cell-based
MCF7 [19] = assay: Cytotoxicity against human MCF7 cells after 24 hrs; format: functional, cell-based; conditions: MCF7, 24 h
HT-29 [20] = assay: Cytotoxicity against 5-FU-resistant human HT-29 cells after 24 hrs; format: functional, cell-based; conditions: HT-29, 24 h
HT-29 [21] = assay: Cytotoxicity against SN38-resistant human HT-29 cells after 24 hrs; format: functional, cell-based; conditions: HT-29, 24 h
[22] = Antimetastatic activity in mouse EAC cells xenografted in NMRI mouse assessed as metastatic colony formation in lungs at 20 mg/kg, ip daily for 9 days relative to control; format: functional, Ehrlich; conditions: route intraperitoneal
HCT-8 [23] = assay: Cell cycle arrest in human HCT8 cells assessed as accumulation at G0/G1 phase at IC50 after 24 hrs by FACS analysis relative to control; format: functional
[24] = Inhibition of Moloney murine leukemia virus reverse transcriptase
HCT-8 [25] = assay: Cell cycle arrest in human HCT8 cells assessed as accumulation at G2/M phase at IC50 after 24 hrs by FACS analysis relative to control; format: functional
HCT-8 [26] = assay: Cell cycle arrest in human HCT8 cells assessed as accumulation at S phase at IC50 after 24 hrs by FACS analysis relative to control; format: functional
[27] = Inhibition of HIV reverse transcriptase; parameters: species or system Human immunodeficiency virus
[28] = biological target: T1, DNA topoisomerase 1 (Homo sapiens) (UniProt P11387); assay: Inhibition of human topoisomerase 1-mediated relaxation of supercoiled pBR322 DNA up to 12.5 ug/mL after 30 mins by agarose gel electrophoresis
T1 sequence (whole entry): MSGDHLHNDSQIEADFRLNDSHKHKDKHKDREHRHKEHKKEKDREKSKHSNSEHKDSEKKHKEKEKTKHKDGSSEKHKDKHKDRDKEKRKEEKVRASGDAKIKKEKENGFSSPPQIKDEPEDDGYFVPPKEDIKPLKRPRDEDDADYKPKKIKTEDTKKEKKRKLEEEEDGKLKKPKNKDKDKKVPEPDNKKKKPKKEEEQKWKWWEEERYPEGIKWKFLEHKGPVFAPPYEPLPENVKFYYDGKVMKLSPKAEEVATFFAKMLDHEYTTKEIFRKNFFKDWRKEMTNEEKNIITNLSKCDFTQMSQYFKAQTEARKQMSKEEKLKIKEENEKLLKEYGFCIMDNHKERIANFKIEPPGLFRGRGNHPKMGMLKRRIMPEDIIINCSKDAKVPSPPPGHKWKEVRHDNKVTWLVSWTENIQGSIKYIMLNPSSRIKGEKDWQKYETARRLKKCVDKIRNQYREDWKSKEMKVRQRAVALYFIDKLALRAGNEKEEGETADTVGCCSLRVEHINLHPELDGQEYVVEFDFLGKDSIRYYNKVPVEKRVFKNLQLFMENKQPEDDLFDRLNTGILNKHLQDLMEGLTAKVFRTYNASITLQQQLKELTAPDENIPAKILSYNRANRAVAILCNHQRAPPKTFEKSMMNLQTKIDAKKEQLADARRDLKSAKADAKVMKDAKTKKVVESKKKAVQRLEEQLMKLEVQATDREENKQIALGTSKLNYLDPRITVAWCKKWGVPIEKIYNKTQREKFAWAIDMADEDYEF

[29] = biological target: T1, DNA topoisomerase 1 (Homo sapiens); assay: Inhibition of human topoisomerase 1-mediated relaxation of supercoiled pBR322 DNA up to 6.25 ug/mL after 30 mins by agarose gel electrophoresis
HCT-8 [30] = assay: Decrease in EGF receptor gene expression in human HCT8 cells at 2.5 times IC50 after 24 hrs by RT-PCR; format: functional, cell-based
HCT-8 [31] = assay: Decrease in multidrug-resistant related protein gene expression in human HCT8 cells at 2.5 times IC50 after 24 hrs by RT-PCR; format: functional, cell-based
[32] = biological target: DNA polymerase I, thermostable (Thermus aquaticus, UniProt P19821); assay: Inhibition of Taq DNA polymerase
DNA polymerase I, thermostable, sequence (P19821 whole entry): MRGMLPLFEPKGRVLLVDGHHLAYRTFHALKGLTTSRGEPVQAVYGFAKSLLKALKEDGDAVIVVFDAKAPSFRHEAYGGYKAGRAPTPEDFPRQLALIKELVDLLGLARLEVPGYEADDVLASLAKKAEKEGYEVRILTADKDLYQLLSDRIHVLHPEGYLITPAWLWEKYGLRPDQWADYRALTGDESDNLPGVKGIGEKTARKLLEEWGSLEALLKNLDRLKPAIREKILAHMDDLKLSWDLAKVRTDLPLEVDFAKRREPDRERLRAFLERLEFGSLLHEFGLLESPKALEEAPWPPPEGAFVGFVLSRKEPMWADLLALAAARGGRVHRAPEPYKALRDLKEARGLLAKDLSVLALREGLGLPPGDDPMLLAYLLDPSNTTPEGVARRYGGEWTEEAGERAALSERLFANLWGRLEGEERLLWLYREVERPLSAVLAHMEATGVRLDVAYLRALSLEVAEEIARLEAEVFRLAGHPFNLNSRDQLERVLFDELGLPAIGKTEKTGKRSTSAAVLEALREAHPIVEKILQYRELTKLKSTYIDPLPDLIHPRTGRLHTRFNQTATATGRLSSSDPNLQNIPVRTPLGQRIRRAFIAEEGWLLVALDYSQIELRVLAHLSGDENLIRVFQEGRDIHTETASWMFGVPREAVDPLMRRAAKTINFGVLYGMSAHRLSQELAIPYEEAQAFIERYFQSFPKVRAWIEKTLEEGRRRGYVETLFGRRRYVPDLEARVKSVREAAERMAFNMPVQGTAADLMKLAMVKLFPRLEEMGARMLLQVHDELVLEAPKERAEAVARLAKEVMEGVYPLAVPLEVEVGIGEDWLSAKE

HCT-8 [33] = assay: Decrease in topoisomerase 2 beta gene expression in human HCT8 cells at 2.5 times IC50 after 24 hrs by RT-PCR; format: functional, cell-based
HCT-8 [34] = assay: Induction of late apoptosis in [14C]D-thymidine labeled human HCT8 cells assessed DNA fragmentation treated at 10 times IC50 for 8 hrs measured after 24 hrs by liquid scintillation counter; format: functional, cell-based
HCT-8 [35] = assay: Induction of late apoptosis in [14C]D-thymidine labeled human HCT8 cells assessed DNA fragmentation treated at 2.5 times IC50 for 8 hrs measured after 24 hrs by liquid scintillation counter; format: functional, cell-based

Compound | IC50 (NCI-H460) [µg/mL] | IC50 (A2780 [1]) [µg/mL] | IC50 (HCT-8 [2]) [µg/mL] | IC50 [3] [µg/mL] | IC50 (A2780 [4]) [µg/mL] | IC50 (Jurkat) [µg/mL] | IC50 [5] [µg/mL] | IC50 [6] [µg/mL] | IC50 [7] [µg/mL] | IC50 [8] [µg/mL] | IC50 (HCT-8 [9]) [µg/mL] | IC50 (HEK293) [µg/mL] | IC50 (MCF7 [10]) [µg/mL] | IC50 (A2780 [11]) [µg/mL] | IC50 [12] [µg/mL] | IC50 (HT-29 [13]) [µg/mL] | IC50 (HCT-8 [14]) [µg/mL] | IC50 (LNCaP [15]) [µg/mL] | IC50 (MCF7 [16]) [µg/mL] | IC50 (MCF7 [19]) [µg/mL] | other results
CC(C)=CCC1=C(O)[C@@]2(C(=O)c3ccccc3)C(=O)[C@](CC=C(C)C)(C[C@H](CC=C(C)C)C2(C)C)C1=O | 4.21 (≈ 8.37 µM) | 9.2 (≈ 18.3 µM) | 4.07 (≈ 8.1 µM) | 8.44 (≈ 16.8 µM) | 6.23 (≈ 12.4 µM) | 4.6 (≈ 9.15 µM) | 8.24 (≈ 16.4 µM) | 9.18 (≈ 18.3 µM) | 4.77 (≈ 9.49 µM) | 5.7 (≈ 11.3 µM) | 4.23 (≈ 8.41 µM) | 4.2 (≈ 8.35 µM) | 3.3 (≈ 6.56 µM) | 6.75 (≈ 13.4 µM) | 8.2 (≈ 16.3 µM) | 5.25 (≈ 10.4 µM) | 4.44 (≈ 8.83 µM) | 2.12 (≈ 4.22 µM) | 4.28 (≈ 8.51 µM) | 4.37 (≈ 8.69 µM) | IC50 (K562): 4.2 µg/mL (≈ 8.35 µM); IC50 (PC-3): 2.01 µg/mL (≈ 4 µM); IC50 (LNCaP [17]): 1.81 µg/mL (≈ 3.6 µM); IC50 [18]: 21.7 µg/mL (≈ 43.2 µM); IC50 (HT-29 [20]): 5.18 µg/mL (≈ 10.3 µM); IC50 (HT-29 [21]): 3.5 µg/mL (≈ 6.96 µM)
O=c1[nH]cc(F)c(=O)[nH]1 [FLUOROURACIL] |  |  |  |  |  |  |  |  |  |  |  |  |  |  |  |  |  |  |  |  | Activity [22]: 23.8%
COc1ccc([C@H]2COc3cc(O)ccc3C2)c(OC)c1O [MUCRONULATOL] |  |  |  | 10.2 (≈ 33.8 µM) |  |  | 8.22 (≈ 27.2 µM) | > 50 |  |  | 2.6 (≈ 8.6 µM) | 2.5 (≈ 8.27 µM) |  |  | 10.1 (≈ 33.4 µM) |  |  |  | > 50 | 2.52 (≈ 8.34 µM) | 
CC(C)=CC[C@]12C[C@@H]3[C@H](C=C(C)C)[C@](CC=C(C)C)(C1=O)C(=O)[C@](C(=O)c1ccccc1)(C2=O)C3(C)C [PLUKENETIONE A] | 13.4 (≈ 26.8 µM) | 13.3 (≈ 26.6 µM) | 11.7 (≈ 23.3 µM) |  | 15.9 (≈ 31.8 µM) | 5.28 (≈ 10.5 µM) |  |  | 7.6 (≈ 15.2 µM) | 6.53 (≈ 13 µM) | 12.9 (≈ 25.8 µM) | 32.1 (≈ 64.1 µM) | 10 (≈ 20 µM) | 14.5 (≈ 28.9 µM) |  | 12 (≈ 24 µM) | 12.1 (≈ 24.2 µM) | 1.98 (≈ 3.95 µM) | 15 (≈ 29.9 µM) | 16.3 (≈ 32.5 µM) | Activity (HCT-8 [23]): 52.1%; IC50 [24]: 1.5 µg/mL (≈ 3 µM); Activity (HCT-8 [25]): 20.6%; Activity (HCT-8 [26]): 4.3%; IC50 [27]: 1.5 µg/mL (≈ 3 µM); Activity [28]: Active; Activity [29]: Active; Activity (HCT-8 [30]): Active; Activity (HCT-8 [31]): Active; IC50 [32]: 12.5 µM; Activity (HCT-8 [33]): Active; IC50 (LNCaP [17]): 1.72 µg/mL (≈ 3.44 µM); IC50 [18]: 15.7 µg/mL (≈ 31.4 µM); Activity (HCT-8 [34]): Active; Activity (HCT-8 [35]): Active; IC50 (HT-29 [20]): 14.2 µg/mL (≈ 28.4 µM); IC50 (HT-29 [21]): 13.3 µg/mL (≈ 26.6 µM)
